# Reference: patent US20240148821A1, “PHARMACEUTICAL USE OF CYCLIC PEPTIDE COMPOUND” (CHUGAI SEIYAKU KABUSHIKI KAISHA, priority 2021, published 2024)
# Numbered stars: 1 amine (or outer) side, 2 acyl side, 3 side chain; on linkers, the order of the positions; unused ones are H or OH. Bridge positions count the residues as written; N and C are the ends. Square brackets hold non-standard residues; d marks the D form. Peptide text beside a SMILES is read from it. * marks the point of attachment. hPhe(3-Cl-4-CF3) = N[C@@H](CCc1ccc(C(F)(F)F)c(Cl)c1)C(=O)O; NMePhe(4-Me) = CN[C@@H](Cc1ccc(C)cc1)C(=O)O; NMedβ3hAla = C[C@H](CC(=O)[*:2])N(C)[*:1]; NMeGly(cPent) = CN[C@H](C(=O)O)C1CCCC1; NMeCha = CN[C@@H](CC1CCCCC1)C(=O)O; NMeCba = CN[C@@H](CC1CCC1)C(=O)O; NMeChg = CN[C@H](C(=O)O)C1CCCCC1; NMeF = CN[C@@H](Cc1ccccc1)C(=O)O; NMeI = CC[C@H](C)[C@H](NC)C(=O)O; NMeD = CN[C@@H](CC(=O)O)C(=O)O; NMeL = CN[C@@H](CC(C)C)C(=O)O; NMeNle = CCCC[C@H](NC)C(=O)O; NMeNva = CCC[C@H](NC)C(=O)O; NMeV = CN[C@H](C(=O)O)C(C)C; d(β3hA) = C[C@@H](N)CC(=O)O; NMeAbu = CC[C@H](NC)C(=O)O; NMeS = CN[C@@H](CO)C(=O)O; NMeA = CN[C@@H](C)C(=O)O; Piperidide = C1CCN(*)CC1; Pyrrolidide = C1CCN(*)C1; Ac5c = NC1(C(=O)O)CCCC1; Aze = O=C(O)[C@@H]1CCN1; Ac4c = NC1(C(=O)O)CCC1; Sar = CNCC(=O)O; Propyl = CCC*
# Molecular target: protein-protein interaction between Kras and SOS1 (biotin-tagged human Kras loaded with GDP, His-tagged human SOS1) (Homo sapiens (Human), UniProt P01116, G12D)
# Assay: Protein-protein interaction inhibition between Kras and SOS1 (KrasG12D-SOS PPI) using AlphaScreen;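 further: kras produced in E. coli, Ni-coupled donor beads and streptavidin acceptor beads, excitation 680 nm with emission detected at 520–620 nm via singlet oxygen transfer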
# Type: biochemical
# Conditions: AlphaScreen; biotin-tagged human Kras loaded with GDP, His-tagged human SOS1; read-out: KRAS G12D-SOS PPI IC50
row,SMILES,IC50 [nM]
1,CCCC[C@H]1C(=O)N2CC[C@H]2C(=O)N(C)[C@@H](CC2CCCCC2)C(=O)N(C)CC(=O)N[C@@H](CCc2ccc(C(F)(F)F)c(Cl)c2)C(=O)N2CCC[C@H]2C(=O)NC2(CCCC2)C(=O)N(C)[C@@H](C(C)C)C(=O)N(C)[C@H](C(=O)N2CCCCC2)CC(=O)N(C)[C@@H](CC(C)C)C(=O)N[C@@H]([C@@H](C)CC)C(=O)N1C [Compound 1596] ([NMeL]I[NMeNle][Aze][NMeCha][Sar][hPhe(3-Cl-4-CF3)]P[Ac5c][NMeV][NMeD]-Piperidide; lactam N-11),23
2,CCC[C@H]1C(=O)N2CC[C@H]2C(=O)N(C)[C@@H](CC2CCCCC2)C(=O)N(C)CC(=O)N[C@@H](CCc2ccc(C(F)(F)F)c(Cl)c2)C(=O)N2CCC[C@H]2C(=O)NC2(CCCC2)C(=O)N(C)[C@@H](C(C)C)C(=O)N(C)[C@H](C(=O)N2CCCCC2)CC(=O)N(C)[C@@H](CC(C)C)C(=O)N[C@@H]([C@@H](C)CC)C(=O)N1C [Compound 1601] ([NMeL]I[NMeNva][Aze][NMeCha][Sar][hPhe(3-Cl-4-CF3)]P[Ac5c][NMeV][NMeD]-Piperidide; lactam N-11),22
3,CC[C@H](C)[C@@H]1NC(=O)[C@H](CC(C)C)N(C)C(=O)C[C@@H](C(=O)N2CCCCC2)N(C)C(=O)[C@H](C(C)C)N(C)C(=O)C2(CCCC2)NC(=O)[C@@H]2CCCN2C(=O)[C@H](CCc2ccc(C(F)(F)F)c(Cl)c2)NC(=O)CN(C)C(=O)[C@H](CC2CCCCC2)N(C)C(=O)[C@@H]2CCN2C(=O)[C@H](CC2CCC2)N(C)C1=O [Compound 1603] ([NMeL]I[NMeCba][Aze][NMeCha][Sar][hPhe(3-Cl-4-CF3)]P[Ac5c][NMeV][NMeD]-Piperidide; lactam N-11),94
4,CCCC[C@H]1C(=O)N[C@@H]([C@@H](C)CC)C(=O)N(C)[C@@H](C)C(=O)N2CC[C@H]2C(=O)N(C)[C@@H](CC2CCCCC2)C(=O)N(C)CC(=O)N[C@@H](CCc2ccc(C(F)(F)F)c(Cl)c2)C(=O)N2CCC[C@H]2C(=O)NC2(CCCC2)C(=O)N(C)[C@@H](C(C)C)C(=O)N(C)[C@H](C(=O)N2CCCCC2)CC(=O)N1C [Compound 1616] ([NMeNle]I[NMeA][Aze][NMeCha][Sar][hPhe(3-Cl-4-CF3)]P[Ac5c][NMeV][NMeD]-Piperidide; lactam N-11),12
5,CC[C@H](C)[C@@H]1NC(=O)[C@H](CC(C)C)N(C)C(=O)C[C@@H](C)NC(=O)[C@H](C(C)C)N(C)C(=O)C2(CCCC2)NC(=O)[C@@H]2CCCN2C(=O)[C@H](CCc2ccc(C(F)(F)F)c(Cl)c2)NC(=O)CN(C)C(=O)[C@H](CC2CCCCC2)N(C)C(=O)[C@@H]2CCN2C(=O)[C@H](CC(C)C)N(C)C1=O [Compound 1619] (cyclo([Ac5c][NMeV][d(β3hA)][NMeL]I[NMeL][Aze][NMeCha][Sar][hPhe(3-Cl-4-CF3)]P)),360
6,CC[C@H](C)[C@@H]1NC(=O)[C@H](CC(C)C)N(C)C(=O)C[C@@H](C)NC(=O)[C@H](C(C)C)N(C)C(=O)C2(CCCC2)NC(=O)[C@@H]2CCCN2C(=O)[C@H](CCc2ccc(C(F)(F)F)c(Cl)c2)NC(=O)CN(C)C(=O)[C@H](CC2CCCCC2)N(C)C(=O)[C@@H]2CCN2C(=O)[C@H](Cc2ccccc2)N(C)C1=O [Compound 1628] (cyclo([Ac5c][NMeV][d(β3hA)][NMeL]I[NMeF][Aze][NMeCha][Sar][hPhe(3-Cl-4-CF3)]P)),67
7,CC[C@H](C)[C@@H]1NC(=O)[C@H](CC)N(C)C(=O)C[C@@H](C(=O)N2CCCCC2)N(C)C(=O)[C@H](C(C)C)N(C)C(=O)C2(CCCC2)NC(=O)[C@@H]2CCCN2C(=O)[C@H](CCc2ccc(C(F)(F)F)c(Cl)c2)NC(=O)CN(C)C(=O)[C@H](CC2CCCCC2)N(C)C(=O)[C@@H]2CCN2C(=O)[C@H](C)N(C)C1=O [Compound 1638] ([NMeAbu]I[NMeA][Aze][NMeCha][Sar][hPhe(3-Cl-4-CF3)]P[Ac5c][NMeV][NMeD]-Piperidide; lactam N-11),7.3
8,CCC[C@H]1C(=O)N[C@@H]([C@@H](C)CC)C(=O)N(C)[C@@H](C)C(=O)N2CC[C@H]2C(=O)N(C)[C@@H](CC2CCCCC2)C(=O)N(C)CC(=O)N[C@@H](CCc2ccc(C(F)(F)F)c(Cl)c2)C(=O)N2CCC[C@H]2C(=O)NC2(CCCC2)C(=O)N(C)[C@@H](C(C)C)C(=O)N(C)[C@H](C(=O)N2CCCCC2)CC(=O)N1C [Compound 1639] ([NMeNva]I[NMeA][Aze][NMeCha][Sar][hPhe(3-Cl-4-CF3)]P[Ac5c][NMeV][NMeD]-Piperidide; lactam N-11),5.8
9,CCCOC[C@H]1C(=O)N(C)CC(=O)N[C@@H](CCc2ccc(C(F)(F)F)c(Cl)c2)C(=O)N2CCC[C@H]2C(=O)NC2(CCCC2)C(=O)N(C)[C@@H](C(C)C)C(=O)N(C)[C@H](C(=O)N2CCCCC2)CC(=O)N(C)[C@@H](CC(C)C)C(=O)N[C@@H]([C@@H](C)CC)C(=O)N(C)[C@@H](C)C(=O)N2CC[C@H]2C(=O)N1C [Compound 1646] ([NMeL]I[NMeA][Aze][NMeS](Propyl)[Sar][hPhe(3-Cl-4-CF3)]P[Ac5c][NMeV][NMeD]-Piperidide; lactam N-11),4.6
10,CC[C@H](C)[C@@H]1NC(=O)[C@H](CC(C)C)N(C)C(=O)C[C@@H](C)N(C)C(=O)[C@H](C(C)C)N(C)C(=O)C2(CCCC2)NC(=O)[C@@H]2CCCN2C(=O)[C@H](CCc2ccc(C(F)(F)F)c(Cl)c2)NC(=O)CN(C)C(=O)[C@H](CC2CCCCC2)N(C)C(=O)[C@@H]2CCN2C(=O)CN(C)C1=O [Compound 1648] (cyclo([Ac5c][NMeV][NMedβ3hAla][NMeL]I[Sar][Aze][NMeCha][Sar][hPhe(3-Cl-4-CF3)]P)),10
11,CC[C@H](C)[C@@H]1NC(=O)[C@H](CC(C)C)N(C)C(=O)C[C@@H](C(=O)N(C)C)N(C)C(=O)[C@H](C(C)C)N(C)C(=O)C2(CCCC2)NC(=O)[C@@H]2CCCN2C(=O)[C@H](CCc2ccc(C(F)(F)F)c(Cl)c2)NC(=O)CN(C)C(=O)[C@H](Cc2ccc(C)cc2)N(C)C(=O)[C@@H]2CCN2C(=O)[C@H](C)N(C)C1=O [Compound 1653] ([NMeL]I[NMeA][Aze][NMePhe(4-Me)][Sar][hPhe(3-Cl-4-CF3)]P[Ac5c][NMeV][NMeD]-NMe2; lactam N-11),0.89
12,CC[C@H](C)[C@@H]1NC(=O)[C@H](CC(C)C)N(C)C(=O)C[C@@H](C)NC(=O)[C@H]([C@@H](C)CC)N(C)C(=O)C2(CCCC2)NC(=O)[C@@H]2CCCN2C(=O)[C@H](CCc2ccc(C(F)(F)F)c(Cl)c2)NC(=O)CN(C)C(=O)[C@H](CC2CCCCC2)N(C)C(=O)[C@@H]2CCN2C(=O)[C@H](C)N(C)C1=O [Compound 1654] (cyclo([Ac5c][NMeI][d(β3hA)][NMeL]I[NMeA][Aze][NMeCha][Sar][hPhe(3-Cl-4-CF3)]P)),22
13,CC[C@H](C)[C@@H]1NC(=O)[C@H](CC(C)C)N(C)C(=O)C[C@@H](C(=O)N2CCCCC2)N(C)C(=O)[C@H](CC(C)C)N(C)C(=O)C2(CCCC2)NC(=O)[C@@H]2CCCN2C(=O)[C@H](CCc2ccc(C(F)(F)F)c(Cl)c2)NC(=O)CN(C)C(=O)[C@H](CC2CCCCC2)N(C)C(=O)[C@@H]2CCN2C(=O)[C@H](C)N(C)C1=O [Compound 1657] ([NMeL]I[NMeA][Aze][NMeCha][Sar][hPhe(3-Cl-4-CF3)]P[Ac5c][NMeL][NMeD]-Piperidide; lactam N-11),2.8
14,CC[C@H](C)[C@@H]1NC(=O)[C@H](CC(C)C)N(C)C(=O)C[C@@H](C(=O)N2CCCC2)N(C)C(=O)[C@H](C(C)C)N(C)C(=O)C2(CCCC2)NC(=O)[C@@H]2CCCN2C(=O)[C@H](CCc2ccc(C(F)(F)F)c(Cl)c2)NC(=O)CN(C)C(=O)[C@H](CC2CCCCC2)N(C)C(=O)[C@@H]2CCN2C(=O)CN(C)C1=O [Compound 1670] ([NMeL]I[Sar][Aze][NMeCha][Sar][hPhe(3-Cl-4-CF3)]P[Ac5c][NMeV][NMeD]-Pyrrolidide; lactam N-11),1
15,CC[C@H](C)[C@@H]1NC(=O)[C@H](CC(C)C)N(C)C(=O)C[C@@H](C(=O)N2CCCCC2)N(C)C(=O)[C@H](C(C)C)N(C)C(=O)C2(CCC2)NC(=O)[C@@H]2CCCN2C(=O)[C@H](CCc2ccc(C(F)(F)F)c(Cl)c2)NC(=O)CN(C)C(=O)[C@H](CC2CCCCC2)N(C)C(=O)[C@@H]2CCN2C(=O)[C@H](C)N(C)C1=O [Compound 1672] ([NMeL]I[NMeA][Aze][NMeCha][Sar][hPhe(3-Cl-4-CF3)]P[Ac4c][NMeV][NMeD]-Piperidide; lactam N-11),4.3
16,CC[C@H](C)[C@@H]1NC(=O)[C@H](CC(C)C)N(C)C(=O)C[C@@H](C(=O)N(C)C)N(C)C(=O)[C@H](C2CCCCC2)N(C)C(=O)C2(CCCC2)NC(=O)[C@@H]2CCCN2C(=O)[C@H](CCc2ccc(C(F)(F)F)c(Cl)c2)NC(=O)CN(C)C(=O)[C@H](CC2CCCCC2)N(C)C(=O)[C@@H]2CCN2C(=O)[C@H](C)N(C)C1=O [Compound 1675] ([NMeL]I[NMeA][Aze][NMeCha][Sar][hPhe(3-Cl-4-CF3)]P[Ac5c][NMeChg][NMeD]-NMe2; lactam N-11),1.2
17,CC[C@H](C)[C@@H]1NC(=O)[C@H](CC(C)C)N(C)C(=O)C[C@@H](C(=O)N2CCCC2)N(C)C(=O)[C@H](C2CCCC2)N(C)C(=O)C2(CCCC2)NC(=O)[C@@H]2CCCN2C(=O)[C@H](CCc2ccc(C(F)(F)F)c(Cl)c2)NC(=O)CN(C)C(=O)[C@H](CC2CCCCC2)N(C)C(=O)[C@@H]2CCN2C(=O)[C@H](C)N(C)C1=O [Compound 1679] ([NMeL]I[NMeA][Aze][NMeCha][Sar][hPhe(3-Cl-4-CF3)]P[Ac5c][NMeGly(cPent)][NMeD]-Pyrrolidide; lactam N-11),0.85
18,CC[C@H](C)[C@@H]1NC(=O)[C@H](CC(C)C)N(C)C(=O)C[C@@H](C(=O)N(C)C)N(C)C(=O)[C@H](C2CCCCC2)N(C)C(=O)C2(CCCC2)NC(=O)[C@@H]2CCCN2C(=O)[C@H](CCc2ccc(C(F)(F)F)c(Cl)c2)NC(=O)CN(C)C(=O)[C@H](Cc2ccc(C)cc2)N(C)C(=O)[C@@H]2CCN2C(=O)[C@H](C)N(C)C1=O [Compound 1685] ([NMeL]I[NMeA][Aze][NMePhe(4-Me)][Sar][hPhe(3-Cl-4-CF3)]P[Ac5c][NMeChg][NMeD]-NMe2; lactam N-11),0.6
